Results on two molecules are retold here after PMC12687421, “Characterisation of an allosteric site in PLCγ enzymes and implications for development of their specific inhibitors” (Biochemical Journal, 2025).

The target in experiment [1] is T1, PLCγ1^wt (Homo sapiens, UniProt P19174, I813T).
T1 construct: specific activities of PLCγ1^wt and PLCγ2^wt full-length proteins; made in house; host or cells: Escherichia coli T7 Express lysY/Iq
T1 sequence (P19174 1-1291 isoform P19174-2 I813T): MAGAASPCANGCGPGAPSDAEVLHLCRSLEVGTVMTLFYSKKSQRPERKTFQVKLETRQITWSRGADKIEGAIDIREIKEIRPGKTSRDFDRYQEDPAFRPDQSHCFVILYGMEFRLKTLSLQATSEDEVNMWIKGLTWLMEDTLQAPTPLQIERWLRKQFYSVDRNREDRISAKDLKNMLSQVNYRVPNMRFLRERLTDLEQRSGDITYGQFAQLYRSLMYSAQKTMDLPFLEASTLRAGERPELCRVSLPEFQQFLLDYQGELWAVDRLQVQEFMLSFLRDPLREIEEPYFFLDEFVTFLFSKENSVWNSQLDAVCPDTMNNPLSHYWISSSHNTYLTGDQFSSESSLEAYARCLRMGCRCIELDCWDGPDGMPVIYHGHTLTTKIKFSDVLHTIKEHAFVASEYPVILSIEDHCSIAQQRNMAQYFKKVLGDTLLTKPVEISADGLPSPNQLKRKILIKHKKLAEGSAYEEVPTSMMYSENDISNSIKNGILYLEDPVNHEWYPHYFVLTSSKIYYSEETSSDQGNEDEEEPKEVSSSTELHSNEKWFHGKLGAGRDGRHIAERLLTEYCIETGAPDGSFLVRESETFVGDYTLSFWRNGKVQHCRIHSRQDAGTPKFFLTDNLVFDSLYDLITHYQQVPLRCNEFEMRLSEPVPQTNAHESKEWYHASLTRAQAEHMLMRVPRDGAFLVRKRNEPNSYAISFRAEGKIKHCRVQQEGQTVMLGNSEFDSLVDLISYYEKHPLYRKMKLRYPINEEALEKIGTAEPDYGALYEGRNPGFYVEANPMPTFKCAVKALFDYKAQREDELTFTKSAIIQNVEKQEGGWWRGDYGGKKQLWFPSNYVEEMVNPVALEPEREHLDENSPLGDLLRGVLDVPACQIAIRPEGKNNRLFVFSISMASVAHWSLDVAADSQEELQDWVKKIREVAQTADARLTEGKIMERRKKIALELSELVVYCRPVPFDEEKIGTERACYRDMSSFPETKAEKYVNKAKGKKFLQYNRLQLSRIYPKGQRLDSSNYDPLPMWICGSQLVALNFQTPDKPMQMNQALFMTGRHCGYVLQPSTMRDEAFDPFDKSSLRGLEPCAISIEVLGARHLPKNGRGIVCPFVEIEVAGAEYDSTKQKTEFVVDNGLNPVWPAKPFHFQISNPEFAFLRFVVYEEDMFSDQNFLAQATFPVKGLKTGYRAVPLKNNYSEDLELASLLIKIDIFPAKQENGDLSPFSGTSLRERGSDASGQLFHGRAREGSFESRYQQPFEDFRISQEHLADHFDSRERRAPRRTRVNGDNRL
Nature of the experiment: PLC activity assay 1 (A1), XY-69 substrate in liposomes, nucleotide inhibition. The experiment is classed as biochemical. The following applies: for IC50: XY-69 in liposomes, mean and SD, nine replicates.

Experiment [2] has as its target T2, PLCγ1^K491D (Homo sapiens, UniProt P19174, I813T/K491D).
T2 construct: made in house; host or cells: Escherichia coli T7 Express lysY/Iq
T2 sequence (P19174 1-1291 isoform P19174-2 K491D/I813T): T1 sequence (P19174 1-1291 isoform P19174-2 I813T) with K491D
Description: Microscale thermophoresis (MST) binding, K491D variant. The following applies: read-out: estimated Kd, MST, PLCγ1^K491D. How it is done:
Proteins were diluted to 200 nM in MST buffer [50 mM Hepes.KOH, 70 mM KCl, 5% (v/v) glycerol, 0.05% (v/v) Tween-20, 2 mM DTT (pH 7.5)] and subsequently labelled by adding an equal volume of 100 nM 2nd generation RED-Tris-NTA labelling dye and incubating for 30 minutes. […] An equal volume of labelled protein was added to each ligand concentration and the mixture taken up into a standard MST capillary. Samples were measured in a Monolith NT.115 pico instrument (Nanotemper) using the Nano-RED channel. Excitation power was set to 5% and MST power set to high. All experiments were performed at 25°C. All data were analysed using the manufacturer’s MO.Control software and repeated at least three times with representative experiments shown.

Experiment [3] addresses T3, PLCβ2 (Homo sapiens, UniProt Q00722).
T3 construct: made in house; host or cells: Escherichia coli T7 Express lysY/Iq
Description: PLC activity assay 1 (A1), PLCβ2. Format: biochemical. The note with it: substrate in solution or in lipid vesicles (Figure 3C, D); except small changes at very high concentration.

The structures appear in SMILES notation. Where a chain is given by its changes, count along the chain named.

T3 sequence (Q00722 whole entry, species assumed): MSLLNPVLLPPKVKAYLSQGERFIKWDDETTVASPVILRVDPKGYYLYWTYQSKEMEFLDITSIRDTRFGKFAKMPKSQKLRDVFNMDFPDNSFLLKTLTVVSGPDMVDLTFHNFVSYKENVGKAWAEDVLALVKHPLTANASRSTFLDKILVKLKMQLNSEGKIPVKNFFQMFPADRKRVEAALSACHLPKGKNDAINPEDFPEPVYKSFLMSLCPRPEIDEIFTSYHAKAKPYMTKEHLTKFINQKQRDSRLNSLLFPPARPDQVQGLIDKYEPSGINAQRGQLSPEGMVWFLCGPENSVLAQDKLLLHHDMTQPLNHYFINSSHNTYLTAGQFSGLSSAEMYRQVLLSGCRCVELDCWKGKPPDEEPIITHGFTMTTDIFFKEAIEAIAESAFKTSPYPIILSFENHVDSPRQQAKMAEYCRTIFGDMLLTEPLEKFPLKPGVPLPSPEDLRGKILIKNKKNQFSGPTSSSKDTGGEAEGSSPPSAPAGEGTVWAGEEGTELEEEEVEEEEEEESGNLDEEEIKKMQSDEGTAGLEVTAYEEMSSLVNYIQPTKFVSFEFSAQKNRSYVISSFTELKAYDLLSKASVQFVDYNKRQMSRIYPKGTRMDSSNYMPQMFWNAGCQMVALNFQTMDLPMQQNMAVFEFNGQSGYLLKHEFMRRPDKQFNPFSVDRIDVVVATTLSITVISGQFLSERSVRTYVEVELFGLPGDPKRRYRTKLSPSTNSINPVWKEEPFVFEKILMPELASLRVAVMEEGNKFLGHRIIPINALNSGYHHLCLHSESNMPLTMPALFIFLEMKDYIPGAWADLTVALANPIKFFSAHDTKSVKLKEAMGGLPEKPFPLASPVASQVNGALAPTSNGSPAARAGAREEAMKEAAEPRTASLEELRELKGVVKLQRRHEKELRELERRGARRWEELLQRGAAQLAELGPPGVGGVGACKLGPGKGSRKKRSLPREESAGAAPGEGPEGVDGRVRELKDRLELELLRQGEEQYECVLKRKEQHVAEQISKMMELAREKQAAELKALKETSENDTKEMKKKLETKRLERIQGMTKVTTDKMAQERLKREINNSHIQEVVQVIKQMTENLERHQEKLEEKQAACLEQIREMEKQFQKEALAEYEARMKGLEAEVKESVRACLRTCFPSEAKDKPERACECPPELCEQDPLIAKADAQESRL

In general, IC50 refers to the midpoint of a concentration-inhibition curve. High values mean lower potency, low ones higher potency. What is called Kd is the concentration at which binding is half-saturated. The molecule `Nc1ncnc2c1ncn2[C@@H]1O[C@H](COP(=O)(O)OP(=O)(O)OP(=O)(O)O)[C@@H](O)[C@H]1O` [ATP] had an IC50 in experiment [1] of 1 to 20 µM. Also, the Kd in experiment [2] was around 700 µM. The “effect on PLC activity of PLCβ2” value in experiment [3] is listed as “not affected”.

As to `Nc1ncnc2c1ncn2[C@@H]1O[C@H](COP(=O)(O)OP(=O)(O)O)[C@@H](O)[C@H]1O` [ADP], in experiment [1], the “IC50 in liposome assay (A1) relative to solution assay (A2), fold lower” value is given as “eight-fold” and the half-inhibitory concentration (IC50) was 1 to 20 µM. Also, the “IC50 of ADP relative to ATP (fold lower)” value in experiment [1] (assays A1 and A2) was 2–4 fold. Further, in experiment [2], the dissociation constant (Kd) is 1000 to 2000 µM. In addition, in experiment [3], the “effect on PLC activity of PLCβ2” value is recorded as “not affected”.
